Laboratory results reported in patent publication US10646478B2, “Methods for treatment of melanoma” (CHILDREN'S MEDICAL CENTER CORPORATION, priority 2011, dated 2020).
Blank lines part the entries; values can stand above or below the molecule they belong to.

Assays:
human DHODH = human DHODH (Homo sapiens, UniProt Q02127); test: In vitro DHODH assay (DCIP reduction), human enzyme; format: biochemical; conditions: FIG. 11
Method: (§1) The DHODH activity assay monitored the reduction of 2,6-dichloroindophenol (DCIP) and was conducted in 50 μl of 100 mM HEPES (pH 8.0) containing 150 mM NaCl, 5% glycerol, 0.05% Triton X-100, 175 μM L-DHO, 18 μM decylubiquinone (CoQD), and 95 μM DCIP, arrayed in a 384-well format. The concentrations of enzymes used were as follows: P. falciparum 12.5 nM, human 7 nM. Following a 20 minute incubation at room temperature the absorbance was measured at 600 nm (Envision, PerkinElmer).

ventral melanocytes = test: Ventral melanocytes in Xenopus embryos; format: in vivo; conditions: stage 38 embryos
[1] = tested on: crestin+ neural crest progenitors; test: In situ hybridization (ISH) for crestin in zebrafish embryos (chemical screen for suppressors of neural crest development); format: in vivo; conditions: for rescue of neural crest population (crestin ISH): in the presence of leflunomide, A771726 or DH #1
Method: The screen was performed essentially as previously described^31. In brief, WT embryos were collected, staged and then plated at a density of 10 embryos per well in a […] tissue culture plate in 200 ul of E3 water. At 50% epiboly, 100 ul of a 3× chemical stock was added to each well using a Hamilton liquid handling robot, yielding a final 1× concentration. For the majority of the chemicals in the library, this yielded a concentration of ˜33 uM. The libraries used were the BIOMOL 480, Sigma LOPAC 1280, and selected additional compounds obtained through the Children's Hospital Boston Chemical Screening facility. Compounds known to affect pigmentation in Xenopus were obtained from a screen previously described^32, 33. After treatment, embryos were rinsed in E3 water, pronase treated to remove chorions, washed 4× in E3 and 1× in PBT, and then fixed in 4% PFA for 24 hours. Fixed embryos were changed to 100% methanol 24 h later, and kept until the time of ISH.
Embryos underwent automated ISH using a Biolane HTI robot with a crestin riboprobe as previously described^31. All wells were manually scored by eye, assigning a score within a range of 1 (no crestin staining) to 3 (no change in crestin) to 5 (marked increase in crestin). Note was also taken of chemicals that affected migratory patterns in both A-P and D-V directions, and overall morphology. […] All hits were validated in larger, independent clutches of 100-200 embryos using chemicals obtained from independent suppliers.

P. falciparum DHODH = biological target: T1, P. falciparum DHODH (Plasmodium falciparum, UniProt Q08210); test: In vitro DHODH assay (DCIP reduction), malarial enzyme; format: biochemical; conditions: FIG. 11
T1 sequence (Q08210 24-569): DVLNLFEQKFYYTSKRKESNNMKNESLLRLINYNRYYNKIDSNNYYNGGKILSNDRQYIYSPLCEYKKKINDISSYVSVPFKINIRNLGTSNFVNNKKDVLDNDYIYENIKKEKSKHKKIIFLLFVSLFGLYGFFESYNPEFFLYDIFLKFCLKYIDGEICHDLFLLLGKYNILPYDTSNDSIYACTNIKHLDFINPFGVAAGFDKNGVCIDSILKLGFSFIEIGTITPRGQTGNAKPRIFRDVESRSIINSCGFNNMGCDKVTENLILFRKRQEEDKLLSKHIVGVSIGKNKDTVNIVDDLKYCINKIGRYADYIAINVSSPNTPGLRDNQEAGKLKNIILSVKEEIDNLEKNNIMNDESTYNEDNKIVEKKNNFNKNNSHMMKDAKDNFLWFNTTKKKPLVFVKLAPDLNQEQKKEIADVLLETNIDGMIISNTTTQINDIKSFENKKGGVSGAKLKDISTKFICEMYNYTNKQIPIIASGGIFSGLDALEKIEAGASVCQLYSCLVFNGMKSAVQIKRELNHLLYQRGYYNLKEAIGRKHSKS
Method: as §1

A375 melanoma cells = test: In vivo xenograft study of A375 cells in nude mice; parameters: species or system mouse; conditions: daily i.p.; PLX4720 2.5 mg/kg, Leflunomide 7.5 mg/kg; DMSO 7.4+/−1.3-fold
Method: The A375 cell line was chosen for xenografts based on prior experience with PLX4720 in this line. Cells were grown to 60-70% confluence, trypsinized and 3.5×10^5 cells were transplanted into the right flank of nude mice in a volume of 200 ul. […] Tumors were measured with digital calipers on day 4, 7 and 12 and growth rate was compared to the tumor size on day 0. Growth rates were compared between DMSO, PLX, LEF or […] using ANOVA with repeated measures to identify significant interactions. For the day 12 data, differences between the groups were compared using ANOVA followed by posthoc Tukey's least-squared difference.

[2] = tested on: pancreatic cancer (8988, PANC1) and breast cancer (MDA-MD-231) cell lines; test: In vitro proliferation assay in non-melanoma cell lines; format: cell-based, human; conditions: BRAF WT; 8988, PANC1, MDA-MD-231
Method: (§2) Human melanoma cell lines (A375, RPMI7951, Hs.294T, MAMLE-3M) were obtained from the American Type Culture Collection. The 8988 cell line was provided by Alec Kimmelman at Dana Farber, and the PANC1 and MDA-231-MB lines were provided by Rania Hartouche at Harvard. Cells were cultured in DMEM/10% FCS at 37 C, 5% CO2. For proliferation assays, 96-well clear bottom plates were used to plate cells at a density of 5,000 cells/well (RPMI7951 and A375) or 10,000 cells/well (MAMLE-3M-3M and Hs.294T) in 100 ul containing indicated concentrations of A771726 or PLX4720 or DMSO. All conditions were tested in triplicate. Media was changed at day 2, and proliferation rate was measured at day 4 using the CellTiterGlo assay kit (Promega). All values are expressed are the % of luciferase relative to the DMSO control well. Differences between groups were statistically analyzed using a generalized linear ANOVA model taking into account factors of PLX4720, A771726 and dose. IC50's were calculated using a log-logistic model.

[3] = tested on: human melanoma cell lines (A375, Hs.294t, RPMI7951); test: In vitro melanoma proliferation assay (CellTiterGlo); format: cell-based; conditions: RPMI7951 (BRAFV600E)
Method: as §2

[4] = tested on: neural crest stem cells (NCSCs) from fetal (E14.5) rat gut; test: Rat neural crest stem cell assays (self-renewal, colony size, differentiation); format: cell-based
Method: Enteric NCSCs from the fetal (E14.5) rat gut were isolated using flow cytometry to select the 1%-2% of cells expressing the highest levels p75 and α4 integrin as previously described^9. Cells were plated at clonal density in two wells/treatment and cultured in self-renewal medium for 8 days in LEF, A771726 or the vehicle (DMSO) followed by differentiation medium+/−LEF, A771726 or DMSO for 6 days. Cultures were fixed in 4% PFA then stained with antibodies against peripherin, GFAP, and SMA to identify neurons (N), glia (G) and myofibroblasts (M) respectively (U=unstained cells). A total of 3 to 4 independent experiments were performed, and differences measured by ANOVA followed by Bonferonni posthoc comparison. Self-renewal medium contains: DMEM-low glucose, 15% Chick Embryo Extract (CEE), Penn/Strep (P/S), 1% N2 supplement, 2% B27 supplement, 110 nM Retinoic Acid, 50 μM 2-mercaptoethanol 20 ng/ml bFGF, and 20 ng/ml IGF-1. Differentiation medium is the same except it contains 1% CEE, 10 ng/ml bFGF and no IGF-1. Differences between groups were calculated using ANOVA followed by posthoc Sheffe.
Dissociated fetal rat gut cells were plated at clonal density in non-adherent conditions in self-renewal medium with LEF, a77 or DMSO for 10 days^10. Three to five primary neurospheres per treatment were individually re-plated in adherent conditions with LEF, a77 or DMSO and after three days were dissociated into a single cell suspension using trypsin and collagenase IV. Dissociated cells from each neurosphere were re-plated in non-adherent conditions without LEF or a77 and after 10 days, the number of secondary neurospheres were counted and compared. To assess the number of multipotent primary and secondary neurospheres, a subset of neurospheres were plated adherently for 8 days in self-renewal medium followed by 6 days in differentiation medium. Cultures were fixed in 4% PFA and stained with antibodies against peripherin, GFAP, and SMA to identify neurons (N), glia (G) and myofibroblasts (M) respectively. A total of 5 independent experiments were analyzed, and the number of multipotent secondary neurospheres on a given day are normalized to the DMSO control wells, and differences calculated by ANOVA.

Sequence of human DHODH (Q02127 whole entry): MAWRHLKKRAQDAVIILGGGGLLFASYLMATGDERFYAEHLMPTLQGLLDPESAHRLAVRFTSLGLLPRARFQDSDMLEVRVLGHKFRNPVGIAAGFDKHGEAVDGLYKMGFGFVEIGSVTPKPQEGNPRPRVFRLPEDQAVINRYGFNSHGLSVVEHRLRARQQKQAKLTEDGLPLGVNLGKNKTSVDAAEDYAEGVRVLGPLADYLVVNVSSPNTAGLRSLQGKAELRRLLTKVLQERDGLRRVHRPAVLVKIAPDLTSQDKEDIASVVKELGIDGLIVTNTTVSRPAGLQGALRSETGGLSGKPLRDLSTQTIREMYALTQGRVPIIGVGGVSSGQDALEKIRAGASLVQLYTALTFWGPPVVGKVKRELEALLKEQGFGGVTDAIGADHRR

inhibition of purified malarial DHODH (P. falciparum DHODH): strong inhibition of both enzymes
SMILES: O=C(O)c1cc(-c2ccc(-c3ccc(-c4cc(C(=O)O)c5cc(Cl)ccc5n4)cc3)cc2)nc2ccc(Cl)cc12 [NSC210627]
inhibition of purified human DHODH (human DHODH): strong inhibition of both enzymes, at lower concentrations in the human versus malarial forms | ventral melanocytes in Xenopus embryos (ventral melanocytes): reduction of ventral melanocytes | crestin expression by ISH ([1]; zebrafish embryos, 50% epiboly to 24 hpf): strongly abrogated expression of crestin

SMILES: C[C@@]1(CO)[C@H](O)CC[C@@]2(C)[C@H]1CC[C@H]1C[C@@H]3C[C@@]12CC[C@]3(O)CO [aphidicolin]
rescue of neural crest population (crestin ISH) [1]: rescue of the neural crest population

SMILES: CC(=O)[C@H]1CC[C@H]2[C@@H]3CCC4=CC(=O)CC[C@]4(C)[C@H]3CC[C@]12C [progesterone]
rescue of neural crest population (crestin ISH) [1]: rescue of the neural crest population

SMILES: CCCCCCCCCCC1=C(C)C(=O)C(OC)=C(OC)C1=O [decylubiquinone]
rescue of neural crest population (crestin ISH) [1]: rescue of the neural crest population

SMILES: CCCS(=O)(=O)Nc1ccc(F)c(C(=O)c2c[nH]c3ncc(Cl)cc23)c1F [PLX4720]
tumor growth at 12 days post-treatment (A375 melanoma cells): 5.7+/−0.16 fold | proliferation of non-melanoma cell lines [2]: no effect | sensitivity of RPMI7951 to the BRAF inhibitor [3]: significantly less sensitive than the other tested cell lines

SMILES: C/C(O)=C(\C#N)C(=O)Nc1ccc(C(F)(F)F)cc1 [A771726, teriflunomide]
colony size reduced compared to controls [4]: 24% | number of self-renewing NCSCs from primary stem cell colonies [4]: 35+/−6.16 % of controls
